{"source": "patent US20170226139A1", "about": "“CRYSTALLINE SALTS OF (Z)-O-OCTADEC-9-EN-1-YL O,O-DIHYDROGEN PHOSPHOROTHIOATE” (priority 2013, published 2017)", "key": {"[1]": {"test": "Solubility measurement by gravimetric method in various solvents", "type": "physicochemical", "details": "for solubility: thermodynamic from solid", "method": "In addition, the Rx100 L-Lysate salt was further characterized under abbreviated polymorph evaluation. First, the solubility measurement by gravimetric method was performed. Briefly, excess amount of solid was slurried in various solvents at ambient conditions and elevated temperature (50° C.) for minimum of 24 hours. The slurry was centrifuged using a temperature controlled centrifuge and the supernatant was used for gravimetric method. Table 15 presents the solubility data measured using this gravimetric method in various solvents for the L-Lysine salt. In cases where the solvent dissolved all of the solid, the value is shown as “greater than”."}, "[2]": {"test": "Single subcutaneous dose pharmacokinetics in irradiated and unirradiated mice", "type": "in vivo, C57BL/6 mice", "details": "single SC dose 1 mg/kg, 1 mg/kg; for AUC(0-inf): read-out: AUCINF_obs", "from_the_text": "We performed a randomized, open-label, single-dose, four-arm, subcutaneously-administered, study of the pharmacokinetics of Rx100.Ammonia and Rx100.Lysine in irradiated and unirradiated C57BL/6 mice to evaluate the effect of salt form and irradiation on extravascular pharmacokinetics. The purpose of this study was to evaluate the pharmacokinetic parameters for two salt forms of Rx100 (Lysine and Ammonia) in healthy and PB irradiated (IR) mice when administered as a single dose. Each animal received a 1 mg/kg dose of Rx100.Lysine or Rx100.Ammonia. The animals receiving Rx100.Lysine or Rx100.Ammonia after irradiation were dosed 26±2 hours after irradiation and sampling times are relative to the time of test article dosing.\nMore specifically, randomized, acclimated, C57BL/6 mice were administered Rx100.Lysine or Rx100.Ammonia (10 mM L-histidine in sterile water for injection, or 1% ethanol, 2% propylene glycol in PBS, respectively) as a single dose as indicated in Table 25.\nBlood was collected from 4 male and 4 female mice via cardiac puncture at pre-defined time points relative to test article dosing (0.5, 1, 2, 4, 6, 8, 12, 18, 24, and 48 hours) and collected into micro plasma separator vials (BD Microtainer®) containing lithium heparin. Blood was maintained on ice until centrifugation and subsequent processing. Blood draws were a terminal procedure. Plasma was frozen at −80° C. until submitted for bioanalysis. Sample collection was completed in September 2012. Samples were transferred to Covance in December 2013, and sample analysis was complete in the first quarter of 2014.\nA total of 160 male and 160 female C57BL/6 10-12 week old mice were used in this study. Animals were randomized with weight stratification into treatment groups and given a second ear tag. Animals were acclimated for 16-19 days (See below Table 26). Prior to irradiation or dosing (in non-irradiated groups), animals were weighed a second time which was the basis of the animal dose delivered.\nTLDs were used for dosimetry and confirmation of the delivered dose. TLDs were analyzed by MD Anderson and have a +/−5% accuracy. A total of 19 dosimeters were used with a mean measured dose of 15.33±0.166 Gy.\nAnalysis was performed using qualified and validated Phoenix® WinNonlin® Software. The final data provided was imported into Phoenix® WinNonlin®. All data presented in the tables and figures within the results section of this report were generated using the validated Phoenix® WinNonlin® Software."}, "[3]": {"details": "abbreviated polymorph screening"}, "[4]": {"details": "+ IR (irradiated mice), whole group (not split by gender), listed as Rx100.Lysine"}, "[5]": {"details": "healthy mice, F, listed as Rx100.Lysine"}, "[6]": {"details": "healthy mice, M, listed as Rx100.Lysine"}, "[7]": {"details": "healthy mice, whole group (not split by gender), listed as Rx100.Lysine"}, "[8]": {"details": "irradiated mice (15.6 Gy, dosed 26 ± 2 h after), F, listed as Rx100.Lysine"}, "[9]": {"details": "irradiated mice (15.6 Gy, dosed 26 ± 2 h after), M, listed as Rx100.Lysine"}}, "note": "Like-named read-outs stand apart in the source and are kept apart here."}
{"smiles": "CCCCCCCC/C=C\\CCCCCCCCOP(O)(O)=S", "note": "[Rx100.L-Lysine, (Z)—O-octadec-9-en-1-yl O,O-dihydrogen phosphorothioate]", "values": [{"measurement": "Solubility, gravimetric method", "setting": "[1]; EtOH:water (v/v) [1:1], 25° C.", "value": "Gelled"}, {"measurement": "Solubility, gravimetric method", "setting": "[1]; EtOH:water (v/v) [7:3], 25° C.", "value": "Gelled"}, {"measurement": "Solubility, gravimetric method", "setting": "[1]; EtOH:water (v/v) [7:3], 50° C.", "value": "Gelled"}, {"measurement": "Solubility, gravimetric method", "setting": "[1]; IPA:water (v/v) [7:3], 25° C.", "value": "Gelled"}, {"measurement": "Solubility, gravimetric method", "setting": "[1]; IPA:water (v/v) [7:3], 50° C.", "value": "Gelled"}, {"measurement": "Solubility, gravimetric method", "setting": "[1]; MeOH:water (v/v) [1:1], 25° C.", "value": "Gelled"}, {"measurement": "Solubility, gravimetric method", "setting": "[1]; MeOH:water (v/v) [7:3], 50° C.", "value": "Gelled"}, {"measurement": "Solubility in most aqueous solvent systems", "setting": "[1]; [3]", "value": "moderate to high solubility"}, {"measurement": "Solubility in organic systems", "setting": "[1]; [3]", "value": "limited solubility"}, {"measurement": "solubility", "setting": "[1]; aqueous with cosolvent or surfactant or cyclodextrin, EtOH:water (v/v) [1:1], 50° C.", "value": "> 68", "unit": "mg/mL"}, {"measurement": "solubility", "setting": "[1]; aqueous with cosolvent or surfactant or cyclodextrin, EtOH:water (v/v) [3:7], 25° C.", "value": "> 40", "unit": "mg/mL"}, {"measurement": "solubility", "setting": "[1]; aqueous with cosolvent or surfactant or cyclodextrin, EtOH:water (v/v) [3:7], 50° C.", "value": "> 84", "unit": "mg/mL"}, {"measurement": "solubility", "setting": "[1]; aqueous with cosolvent or surfactant or cyclodextrin, IPA:water (v/v) [1:1], 25° C.", "value": "> 40", "unit": "mg/mL"}, {"measurement": "solubility", "setting": "[1]; aqueous with cosolvent or surfactant or cyclodextrin, IPA:water (v/v) [1:1], 50° C.", "value": "> 86", "unit": "mg/mL"}, {"measurement": "solubility", "setting": "[1]; aqueous with cosolvent or surfactant or cyclodextrin, IPA:water (v/v) [3:7], 25° C.", "value": "> 46", "unit": "mg/mL"}, {"measurement": "solubility", "setting": "[1]; aqueous with cosolvent or surfactant or cyclodextrin, IPA:water (v/v) [3:7], 50° C.", "value": "> 70", "unit": "mg/mL"}, {"measurement": "solubility", "setting": "[1]; aqueous with cosolvent or surfactant or cyclodextrin, MeOH:water (v/v) [1:1], 50° C.", "value": "> 80", "unit": "mg/mL"}, {"measurement": "solubility", "setting": "[1]; aqueous with cosolvent or surfactant or cyclodextrin, MeOH:water (v/v) [3:7], 25° C.", "value": "> 48", "unit": "mg/mL"}, {"measurement": "solubility", "setting": "[1]; aqueous with cosolvent or surfactant or cyclodextrin, MeOH:water (v/v) [3:7], 50° C.", "value": "> 86", "unit": "mg/mL"}, {"measurement": "solubility", "setting": "[1]; aqueous with cosolvent or surfactant or cyclodextrin, MeOH:water (v/v) [7:3], 25° C.", "value": 20, "unit": "mg/mL"}, {"measurement": "solubility", "setting": "[1]; organic solvent or mixture, EtOH, 50° C.", "value": 3, "unit": "mg/mL"}, {"measurement": "solubility", "setting": "[1]; organic solvent or mixture, Heptane, 50° C.", "value": 3, "unit": "mg/mL"}, {"measurement": "solubility", "setting": "[1]; organic solvent or mixture, IPA, 50° C.", "value": 5, "unit": "mg/mL"}, {"measurement": "solubility", "setting": "[1]; organic solvent or mixture, MTBE, 50° C.", "value": 4, "unit": "mg/mL"}, {"measurement": "solubility", "setting": "[1]; organic solvent or mixture, MeOH, 50° C.", "value": 4, "unit": "mg/mL"}, {"measurement": "solubility", "setting": "[1]; Water, 25° C.", "value": "> 48", "unit": "mg/mL"}, {"measurement": "solubility", "setting": "[1]; Water, 50° C.", "value": "> 76", "unit": "mg/mL"}, {"measurement": "Cmax", "setting": "[2]; IR males, listed as Rx100.Lysine", "value": 299, "unit": "ng/mL"}, {"measurement": "AUC(0-inf)", "setting": "[2]; both sexes, C57BL/6, mouse, plasma, sc, + IR (irradiated mice), whole group (not split by gender)", "value": 1210, "unit": "ng·h/mL"}, {"measurement": "Cmax", "setting": "[2]; both sexes, C57BL/6, mouse, plasma, sc, + IR (irradiated mice), whole group (not split by gender), read-out: Cmax", "value": 323, "unit": "ng/mL"}, {"measurement": "AUC(0-inf)", "setting": "[2]; both sexes, C57BL/6, mouse, plasma, sc, healthy mice, whole group (not split by gender)", "value": 1660, "unit": "ng·h/mL"}, {"measurement": "Cmax", "setting": "[2]; both sexes, C57BL/6, mouse, plasma, sc, healthy mice, whole group (not split by gender), read-out: Cmax", "value": 512, "unit": "ng/mL"}, {"measurement": "AUC", "setting": "[2]; female, C57BL/6, mouse, plasma, sc, IR females, read-out: AUC", "value": 1240, "unit": "ng·h/mL"}, {"measurement": "Cmax", "setting": "[2]; female, C57BL/6, mouse, plasma, sc, IR females, read-out: Cmax", "value": 355, "unit": "ng/mL"}, {"measurement": "Cmax", "setting": "[2]; female, C57BL/6, mouse, plasma, sc, healthy females, read-out: Cmax", "value": 455, "unit": "ng/mL"}, {"measurement": "AUC", "setting": "[2]; female, C57BL/6, mouse, plasma, sc, healthy females, read-out: exposure (AUC)", "value": 1590, "unit": "ng·h/mL"}, {"measurement": "AUC(0-inf)", "setting": "[2]; female, C57BL/6, mouse, plasma, sc, healthy mice, F", "value": 1590, "unit": "ng·h/mL"}, {"measurement": "Cmax", "setting": "[2]; female, C57BL/6, mouse, plasma, sc, healthy mice, F, read-out: Cmax", "value": 454, "unit": "ng/mL"}, {"measurement": "AUC(0-inf)", "setting": "[2]; female, C57BL/6, mouse, plasma, sc, irradiated mice (15.6 Gy, dosed 26 ± 2 h after), F", "value": 1240, "unit": "ng·h/mL"}, {"measurement": "Cmax", "setting": "[2]; female, C57BL/6, mouse, plasma, sc, irradiated mice (15.6 Gy, dosed 26 ± 2 h after), F, read-out: Cmax", "value": 355, "unit": "ng/mL"}, {"measurement": "AUC", "setting": "[2]; male, C57BL/6, mouse, plasma, sc, IR males, read-out: AUC", "value": 1170, "unit": "ng·h/mL"}, {"measurement": "AUC", "setting": "[2]; male, C57BL/6, mouse, plasma, sc, healthy males, read-out: AUC", "value": 1750, "unit": "ng·h/mL"}, {"measurement": "Cmax", "setting": "[2]; male, C57BL/6, mouse, plasma, sc, healthy males, read-out: Cmax", "value": 570, "unit": "ng/mL"}, {"measurement": "AUC(0-inf)", "setting": "[2]; male, C57BL/6, mouse, plasma, sc, healthy mice, M", "value": 1750, "unit": "ng·h/mL"}, {"measurement": "Cmax", "setting": "[2]; male, C57BL/6, mouse, plasma, sc, healthy mice, M, read-out: Cmax", "value": 570, "unit": "ng/mL"}, {"measurement": "AUC(0-inf)", "setting": "[2]; male, C57BL/6, mouse, plasma, sc, irradiated mice (15.6 Gy, dosed 26 ± 2 h after), M", "value": 1170, "unit": "ng·h/mL"}, {"measurement": "CLss_F", "setting": "[2]; [4]", "value": 13.822, "unit": "mL/min/kg"}, {"measurement": "HL_Lambda_z", "setting": "[2]; [4]", "value": 1.44, "unit": "h"}, {"measurement": "Vz_F", "setting": "[2]; [4]", "value": 1.72242, "unit": "L/kg"}, {"measurement": "CLss_F", "setting": "[2]; [5]", "value": 10.462, "unit": "mL/min/kg"}, {"measurement": "HL_Lambda_z", "setting": "[2]; [5]", "value": 1.84, "unit": "h"}, {"measurement": "Vz_F", "setting": "[2]; [5]", "value": 1.66432, "unit": "L/kg"}, {"measurement": "CLss_F", "setting": "[2]; [6]", "value": 9.5183, "unit": "mL/min/kg"}, {"measurement": "HL_Lambda_z", "setting": "[2]; [6]", "value": 1.91, "unit": "h"}, {"measurement": "Vz_F", "setting": "[2]; [6]", "value": 1.57087, "unit": "L/kg"}, {"measurement": "CLss_F", "setting": "[2]; [7]", "value": 10.032, "unit": "mL/min/kg"}, {"measurement": "HL_Lambda_z", "setting": "[2]; [7]", "value": 1.16, "unit": "h"}, {"measurement": "Vz_F", "setting": "[2]; [7]", "value": 1.00622, "unit": "L/kg"}, {"measurement": "CLss_F", "setting": "[2]; [8]", "value": 13.466, "unit": "mL/min/kg"}, {"measurement": "HL_Lambda_z", "setting": "[2]; [8]", "value": 1.87, "unit": "h"}, {"measurement": "Vz_F", "setting": "[2]; [8]", "value": 2.17384, "unit": "L/kg"}, {"measurement": "CLss_F", "setting": "[2]; [9]", "value": 14.264, "unit": "mL/min/kg"}, {"measurement": "Cmax", "setting": "[2]; [9]", "value": 298.75, "unit": "ng/mL"}, {"measurement": "HL_Lambda_z", "setting": "[2]; [9]", "value": 1.32, "unit": "h"}, {"measurement": "Vz_F", "setting": "[2]; [9]", "value": 1.62547, "unit": "L/kg"}]}
